Experimental findings from patent US20060229433A1, “Modified antiviral peptides with increased activity and cell membrane affinity” (priority 2003, published 2006) are described below.

The subject of data set [1] is HIV-1 NL 4-3. Description: HIV-1 infection of C8166 cells (syncytia formation, p24 ELISA) with HIV-1 NL 4-3. To be noted: C8166 cells, HIV-1 subtype B NL 4-3; Table 3. In kind it is cell-based. Here is the method:
HIV-1 NL 4-3 isolate (Adachi et al., 1986; Barré-Sinoussi et al., 1983) and highly cytopathic Zairian HIV-1 NDK isolate (Ellrodt et al., 1984) was propagated in permissive CEM cells (Nara et al., 1987). Uninfected CEM and C8166 (Salahuddin et al., 1983) were maintained in RPMI 1640 (R10) with ultraglutamine (cambrex, Vervier, Belgium), penicillin (100 U/ml), streptomycin (100 μg/ml), and 10% heat-inactivated fetal calf serum (Cambrex).
(§1) Samples of 3×10^5/100 μL C8166 cells were preincubated in 96-well microtiter plates in culture medium containing various concentrations of peptide. After a 1 h treatment at 37° C., 100 μl of diluted viral solution of HIV-1 was added. The cells were exposed to the virus for 1 h at 37° C. at a multiplicity of infection of 1000 TCID50 per ml. The cells were washed three times and cultured at 3×10^5/ml of R10 with the treatment in 24-well plates incubated at 37° C. C8166 culture medium was replaced at Day-4 post-infection. The treatment was permanent before virus adsorption, during virus adsorption and after infection. Assays on C8166 cells have been performed at least twice and in duplicate. Toxicity was evaluated by daily cell count and trypan-blue exclusion assay. Infection of C8166 T-cells with HIV-1 was assessed by virus-induced cytopathic effects (syncytia formation) and by quantification of cell free p24 viral protein in the culture supernatants. Measurements of HIV-1 p24^gag concentration in the culture supernatants were achieved by ELISA (ALLIANCE® HIV-1 p24 kit, Perkin Elmer, life sciences, USA).
A general note: In an ELISA, binding on a coated surface is turned into a signal by an enzyme label.

Data set [2] relates to HIV-1 NL 4-3. Description: Infection of human peripheral blood lymphocytes (PBL) with NL 4-3 strain, p24 ELISA. It counts as cell-based. To be noted: PBL, NL 4-3 strain; Table 4. Here is the method: Peripheral blood lymphocytes from an HIV-1 negative donor were grown as described earlier, maintained in RPMI 1640 with ultraglutamine, supplemented with IL2 (20 μg/ml), penicillin (100 U/ml), streptomycin (100 μg/ml), and 10% heat-inactivated fetal calf serum. Cells were stimulated three days in the medium supplemented with phytohemagglutinin (20 U/ml PHA P, DIFCO, Detroit Mich.).
Samples of 10^6/100 μL PBL cells were preincubated in 96-well microtiter plates in culture medium containing various concentrations of peptides. After a 1 h treatment at 37° C., 100 μl of diluted viral solution of HIV-1 was added. The cells were exposed to the virus for 1 h at 37° C. at a multiplicity of infection of 1000 TCID50 per ml. The cells were washed three times and cultured at […] of medium with the treatment in 24-well plates incubated at 37° in culture medium with the peptides in 5% CO2. The treatment was permanent before virus adsorption, during virus adsorption and after infection. The PBL culture medium was replaced every 3-4 days during three weeks always in the presence of peptide. The cell viability was assessed by cell counts and trypan-blue exclusion assay. The viral production in the culture supernatant was quantified by p24 ELISA test, as described earlier. All the experiments have been done in blind-tests. Tests have been done in duplicate.

The subject of data set [3] is HIV-1 89.6 subtype B dualtropic (X4R5). To be noted: PBMC, Table 5.
The subject of a further data set is C8166 cells. The experiment in a line: Toxicity on C8166 cells (daily cell count, trypan-blue exclusion). It counts as cell-based. To be noted: at doses up to 10 μM. Here is the method: as §1

Each structure is given as a SMILES string.

For `CC(C)C[C@H](NC(=O)[C@@H]1CCCN1C(=O)[C@H](CO)NC(=O)[C@H](Cc1ccc(O)cc1)NC(=O)CNC(=O)[C@H](CCC(N)=O)NC(=O)[C@@H](N)CCCNC(=N)N)C(=O)NCCCC[C@H](NC(=O)[C@H](CC(C)C)NC(=O)[C@@H]1CCCN1C(=O)[C@H](CO)NC(=O)[C@H](Cc1ccc(O)cc1)NC(=O)CNC(=O)[C@H](CCC(N)=O)NC(=O)[C@@H](N)CCCNC(=N)N)C(=O)NCCCC[C@H](NC(=O)[C@H](CCCCNC(=O)[C@H](CC(C)C)NC(=O)[C@@H]1CCCN1C(=O)[C@H](CO)NC(=O)[C@H](Cc1ccc(O)cc1)NC(=O)CNC(=O)[C@H](CCC(N)=O)NC(=O)[C@@H](N)CCCNC(=N)N)NC(=O)[C@H](CC(C)C)NC(=O)[C@@H]1CCCN1C(=O)[C@H](CO)NC(=O)[C@H](Cc1ccc(O)cc1)NC(=O)CNC(=O)[C@H](CCC(N)=O)NC(=O)[C@@H](N)CCCNC(=N)N)C(=O)NCCCC[C@H](NC(=O)[C@H](CCCCNC(=O)[C@H](CCCCNC(=O)[C@H](CC(C)C)NC(=O)[C@@H]1CCCN1C(=O)[C@H](CO)NC(=O)[C@H](Cc1ccc(O)cc1)NC(=O)CNC(=O)[C@H](CCC(N)=O)NC(=O)[C@@H](N)CCCNC(=N)N)NC(=O)[C@H](CC(C)C)NC(=O)[C@@H]1CCCN1C(=O)[C@H](CO)NC(=O)[C@H](Cc1ccc(O)cc1)NC(=O)CNC(=O)[C@H](CCC(N)=O)NC(=O)[C@@H](N)CCCNC(=N)N)NC(=O)[C@H](CCCCNC(=O)[C@H](CC(C)C)NC(=O)[C@@H]1CCCN1C(=O)[C@H](CO)NC(=O)[C@H](Cc1ccc(O)cc1)NC(=O)CNC(=O)[C@H](CCC(N)=O)NC(=O)[C@@H](N)CCCNC(=N)N)NC(=O)[C@H](CC(C)C)NC(=O)[C@@H]1CCCN1C(=O)[C@H](CO)NC(=O)[C@H](Cc1ccc(O)cc1)NC(=O)CNC(=O)[C@H](CCC(N)=O)NC(=O)[C@@H](N)CCCNC(=N)N)C(=O)NCCC(=O)O` [RL, (RQGYSPL)8-K4-K2-K-βA-OH, reference compound], the results for the IC50 (in the data set on HIV-1 NL 4-3 [1]; in the data set with HIV-1 NL 4-3 [2]; in data set [3]) were 10 nM, 5 nM and 6 nM, respectively. For the same molecule, the IC100 stood at 0.1 µM with HIV-1 NL 4-3 [2] and 0.05 µM in data set [3].
In the case of `C[C@H](NC(=O)[C@H](CCCNC(=N)N)NC(=O)CNC(=O)[C@@H]1CCCN1C(=O)CN)C(=O)N[C@@H](Cc1ccccc1)C(=O)NCCCC[C@H](NC(=O)[C@H](Cc1ccccc1)NC(=O)[C@H](C)NC(=O)[C@H](CCCNC(=N)N)NC(=O)CNC(=O)[C@@H]1CCCN1C(=O)CN)C(=O)NCCCC[C@H](NC(=O)[C@H](CCCCNC(=O)[C@H](Cc1ccccc1)NC(=O)[C@H](C)NC(=O)[C@H](CCCNC(=N)N)NC(=O)CNC(=O)[C@@H]1CCCN1C(=O)CN)NC(=O)[C@H](Cc1ccccc1)NC(=O)[C@H](C)NC(=O)[C@H](CCCNC(=N)N)NC(=O)CNC(=O)[C@@H]1CCCN1C(=O)CN)C(=O)NCCCC[C@H](NC(=O)[C@H](CCCCNC(=O)[C@H](CCCCNC(=O)[C@H](Cc1ccccc1)NC(=O)[C@H](C)NC(=O)[C@H](CCCNC(=N)N)NC(=O)CNC(=O)[C@@H]1CCCN1C(=O)CN)NC(=O)[C@H](Cc1ccccc1)NC(=O)[C@H](C)NC(=O)[C@H](CCCNC(=N)N)NC(=O)CNC(=O)[C@@H]1CCCN1C(=O)CN)NC(=O)[C@H](CCCCNC(=O)[C@H](Cc1ccccc1)NC(=O)[C@H](C)NC(=O)[C@H](CCCNC(=N)N)NC(=O)CNC(=O)[C@@H]1CCCN1C(=O)CN)NC(=O)[C@H](Cc1ccccc1)NC(=O)[C@H](C)NC(=O)[C@H](CCCNC(=N)N)NC(=O)CNC(=O)[C@@H]1CCCN1C(=O)CN)C(=O)NCCCCC(=O)O` [S5, SPC3-(δ-aminovaleric acid)], the toxicity on cells entry with C8166 cells was “no toxicity”.
